Laboratory results taken from patent US8242054B2, “Plant growth regulator composition” (Snow Brand Seed Co., Ltd., priority 2008, dated 2012).

What was measured:
adzuki bean section [1] = test: adzuki bean root promotion assay (section immersion treatment, adventitious roots counted); assay type: in vivo; details: for Relative value (%): 0/0 ppm group = 100; for Number of roots: 72 h immersion, counted 7 days after immersion
adzuki bean section [2] = test: as above; assay type: in vivo; details: for Relative value (%): 0/0 ppm group = 100; for Ratio to untreated group (%): untreated group = 100
Procedure: An aqueous solution of DL-phenyllactic acid (Sigma-Aldrich Japan) and L-tryptophan (Wako Pure Chemical Industries, Ltd.) was prepared so that the total concentration of the compounds was 400 ppm and adjusted to pH 7 with hydrochloric acid, and the solution was subjected to an adzuki bean root promotion assay (Itagaki et al. 2003. Biological activities and structure-activity relationship of substitution compounds of N-[2-(3-indolyl)ethyl]succinamic acid and N-[2-(1-naphthyl)ethyl]succinamic acid, derived from a new category of root-promoting substance, N-(phenethyl) succinamic acid analogs. Plant Soil 255: 67-75). The base of an adzuki section was immersed in the test solution for 72 hours, and adventitious roots generated 7 days after immersion were counted. The repetition number was 5.
To study the cooperation effect of phenyllactic acid and aromatic amino acids other than L-tryptophan, each of 1 mM of DL-phenyllactic acid (Sigma-Aldrich Japan), L-tryptophan (Wako Pure Chemical Industries, Ltd.), L-phenylalanine (Wako Pure Chemical Industries, Ltd.), and L-tyrosine (Wako Pure Chemical Industries, Ltd.), and aqueous solutions obtained by adding the amino acids to DL-phenyllactic acid were prepared, and subjected to the adzuki bean root promotion assay in the same way as in Example 1.
To compare effects of combinations of tryptophan enantiomers and phenyllactic acid enantiomers, aqueous solutions of 400 ppm of L-tryptophan, D-tryptophan (Wako Pure Chemical Industries, Ltd.), L-phenyllactic acid (Sigma-Aldrich Japan), and D-phenyllactic acid (Sigma-Aldrich Japan) were prepared. Separately, aqueous solutions of 200 ppm of each of the tryptophan enantiomers and 200 ppm of each of the […] enantiomers were prepared and subjected to the adzuki bean root promotion assay in the same way as in Example 1. […]

plants = details: background art; cited from earlier work
[3] = Table 3: L-tryptophan 0 ppm, DL-phenyllactic acid 20 ppm
[4] = Table 4: each component present at 1 mM
[5] = Table 5: single enantiomer 400 ppm
[6] = Table 3: L-tryptophan 1200 ppm, DL-phenyllactic acid 0 ppm

SMILES: O=C(O)C(O)Cc1ccccc1 (racemic) [DL-phenyllactic acid]
- Relative value (%) (adzuki bean section [1]; [3]): 107%
- Number of roots (adzuki bean section [1]; [3]): 11.6
- root promoting effect (in words) (adzuki bean section [2]; Table 1, only DL-phenyllactic acid): slight root promoting effect
- Relative value (%) (adzuki bean section [2]; Table 1: L-tryptophan 0 ppm, DL-phenyllactic acid 400 ppm): 137%
- Number of roots (adzuki bean section [2]; Table 1: L-tryptophan 0 ppm, DL-phenyllactic acid 400 ppm, 72 h immersion, counted 7 days after immersion): 22.4
- Relative value (%) (adzuki bean section [2]; Table 2: L-tryptophan 0 ppm, DL-phenyllactic acid 400 ppm): 268%
- Number of roots (adzuki bean section [2]; Table 2: L-tryptophan 0 ppm, DL-phenyllactic acid 400 ppm, 72 h immersion, counted 7 days after immersion): 32.2
- Number of roots (adzuki bean section [2]; [4]): 18.8
- Ratio to group treated with only DL-phenyllactic acid (%) (adzuki bean section [2]; Table 4: each component present at 1 mM, 1 mM DL-phenyllactic acid only = 100): 100%
- Ratio to untreated group (%) (adzuki bean section [2]; [4]): 132%

SMILES: O=C(O)[C@@H](O)Cc1ccccc1 [D-phenyllactic acid]
- Number of roots (adzuki bean section [2]; [5]): 27.6
- Relative value (%) (adzuki bean section [2]; [5]): 192%

SMILES: N[C@H](Cc1c[nH]c2ccccc12)C(=O)O [D-tryptophan]
- Number of roots (adzuki bean section [2]; [5]): 24.2
- Relative value (%) (adzuki bean section [2]; [5]): 168%

SMILES: N[C@@H](Cc1ccccc1)C(=O)O [L-phenylalanine]
- Number of roots (adzuki bean section [2]; [4]): 16.6
- Ratio to untreated group (%) (adzuki bean section [2]; [4]): 117%

SMILES: O=C(O)[C@@H](O)Cc1ccccc1 [L-phenyllactic acid]
- Number of roots (adzuki bean section [2]; [5]): 19.4
- Relative value (%) (adzuki bean section [2]; [5]): 135%

SMILES: N[C@@H](Cc1c[nH]c2ccccc12)C(=O)O [L-tryptophan]
- Relative value (%) (adzuki bean section [1]; [6]): 139%
- Number of roots (adzuki bean section [1]; [6]): 15.0
- Relative value (%) (adzuki bean section [2]; Table 1: L-tryptophan 400 ppm, DL-phenyllactic acid 0 ppm): 113%
- Number of roots (adzuki bean section [2]; Table 1: L-tryptophan 400 ppm, DL-phenyllactic acid 0 ppm, 72 h immersion, counted 7 days after immersion): 18.6
- Relative value (%) (adzuki bean section [2]; Table 3: L-tryptophan 400 ppm, DL-phenyllactic acid 0 ppm): 98%
- Number of roots (adzuki bean section [2]; Table 3: L-tryptophan 400 ppm, DL-phenyllactic acid 0 ppm, 72 h immersion, counted 7 days after immersion): 10.6
- Number of roots (adzuki bean section [2]; [4]): 19.2
- Ratio to untreated group (%) (adzuki bean section [2]; [4]): 135%
- Number of roots (adzuki bean section [2]; [5]): 22.2
- Relative value (%) (adzuki bean section [2]; [5]): 154%

SMILES: N[C@@H](Cc1ccc(O)cc1)C(=O)O [L-tyrosine]
- Number of roots (adzuki bean section [2]; [4]): 13.6
- Ratio to untreated group (%) (adzuki bean section [2]; [4]): 96%

SMILES: O=C(O)C(O)Cc1ccccc1 (stereo not shown) [phenyllactic acid, 3-phenyllactic acid]
- root promoting effect on plants (in words) (plants): the effect is weak
